Tests used:
MV4;11 cells = conditions: at 0.1 μM, 6 hours exposure
Procedure: (§1) This study was carried out on three human tumour cell lines: • 1 small-cell lung carcinoma, H146, • 1 acute myeloid leukaemia, MV4; 11, • 1 leukaemia, RS4; 11.
(§2) The cell lines are cultured in an incubator at 37° C. in the presence of 5% CO2. The H146 and RS4;11 cells are cultured in complete RPMI 1640 medium containing 10% foetal calf serum, 2 mM of glutamine, 50 units/ml of penicillin, 50 μg/ml of streptomycin and 10 mM of Hepes buffer, pH=7.4.
(§3) The cells are distributed onto 6-well plates and exposed to the test compounds for 6 hours. They are then harvested and lysed and the caspase activity is measured in the cell lysates. This enzymatic measurement is carried out by measuring the appearance of a fluorigenic cleavage product (Pharmacia).

H146 cells = conditions: at 3 μM, 6 hours exposure
Procedure: as §1, §2, §3

RS4;11 cells = conditions: at 1 μM, 6 hours exposure
Procedure: as §1, §2, §3

H146 = conditions: read-out: IC50 (concentration of compound that inhibits cell viability by 50%); H146, 48 hours exposure
Procedure: (§4) The cytotoxicity studies were carried out on the three tumour lines of Example A. The cells are distributed onto microplates and exposed to the test compounds for 48 hours. The cell viability is then quantified by a colorimetric assay, the Microculture Tetrazolium Assay (Cancer Res., 1987, 47, 939-942).

MV4;11 = conditions: read-out: IC50 (concentration of compound that inhibits cell viability by 50%); MV4;11, 48 hours exposure
Procedure: as §4

RS4;11 = conditions: read-out: IC50 (concentration of compound that inhibits cell viability by 50%); RS4;11, 48 hours exposure
Procedure: as §4

[1] = system: H146 small-cell lung carcinoma cells; conditions: 100 mg/kg intra-peritoneally every day for 21 days
Procedure: The anti-tumour activity of the compounds of the invention is evaluated in a xenotransplant model of H146 small-cell lung carcinoma cells.
5×10^6 H146 cells are transplanted sub-cutaneously into immunosuppressed mice (NOD SCID strain). […] The tumour mass is measured twice a week from the commencement of treatment.

Structure (SMILES): CN(C)CC[C@H](CSc1ccccc1)Nc1ccc(S(=O)(=O)NC(=O)c2ccc3c(c2)CC[C@@H]2CN(Cc4ccccc4-c4ccc(Cl)cc4)CCN32)cc1[N+](=O)[O-].Cl.Cl [Example 20]
- caspase activity (MV4;11 cells): 20000 IU
- caspase activity (H146 cells): 22000 IU
- caspase activity (RS4;11 cells): 23000 IU
- IC50 (H146): 305 nM
- IC50 (MV4;11): 29.5 nM
- IC50 (RS4;11): 16.5 nM
- persistence of the effect after the end of treatment [1]: at least 40 days
- tumour regression [1]: almost complete tumour regression

— patent US20080188460A1, “Tricyclic compounds, a process for their preparation and pharmaceutical compositions containing them” (LES LABORATOIRES SERVIER, priority 2007, published 2008)
